In US10258595B2, “Pharmaceutical formulation for histone deacetylase inhibitors” (TetraLogic Shape UK Ltd, priority 2010, dated 2019):
Where two headings read alike, the source gives them in different places.

Assays:
[1] = Procedure: The method has historic precedent for accurately predicting in vivo percutaneous absorption kinetics.
To assure the integrity of each skin section, its permeability to tritiated water was determined before application of the test products.

[2] = Degradation of compound (II) in neutral ethanol; type: physicochemical; settings: room temperature, 24 hours
[3] = Saturation solubility of compound (II) in the gel formulation; type: physicochemical; settings: acidified nonaqueous gel, refrigerated storage (2-8° C.)
[4] = Exposure of gels to laboratory light; type: physicochemical; settings: exposure to laboratory light for up to five days
[5] = skin dosed with compound (II) formulations

Compound: O=C(O)c1ccc(O)cc1 [4-OH Benzoic acid]
- presence of degradation products in the samples [1, 5]: present in the majority of the samples

Compound: COC(=O)c1ccc(OC(=O)CCCCCCC(=O)NO)cc1 [Compound (II)]
- degradation of compound (II) [2]: approximately 50%
- formulation's saturation solubility for compound (II) [3]: approximately 1.6 % w/w
- effect of light on assay values for compound (II) [4]: did not significantly affect
- detectable compound (II) found in the epidermis ([1]; human, 24 h, pH 6): 0.3-0.9%
- detectable compound (II) found in the surface wash ([1]; human, 24 h, pH 6): 20-69%

Compound: O=C(O)CCCCCCC(=O)NO [Compound (III)]
- presence of degradation products in the samples [1]: present in the majority of the samples

Compound: COC(=O)c1ccc(O)cc1 [Methylparaben]
- presence of degradation products in the samples [1, 5]: present in the majority of the samples
